# *1 amine or outer side, *2 acyl side, *3 side chain or, on linkers, in order; H or OH if unused. Where a SMILES comes first, the peptide text is derived from it. Bridges are numbered along the chain shown (N, C = ends). [ ]: non-standard residue; d: D form. The star is where a group is joined. ξ: configuration not given here. X10 = O=C(O)COc1ccc(C[C@H](CC(=O)C[*:2])C(=O)[*:1])cc1; Phe(3-CF3) = N[C@@H](Cc1cccc(C(F)(F)F)c1)C(=O)O; X8 = O=C(O)COc1ccc(C[C@H](N[*:1])C(=O)[*:2])cn1; Ala(morpholin-4-yl) = N[C@@H](CN1CCOCC1)C(=O)O; Phe(4-COOH) = N[C@@H](Cc1ccc(C(=O)O)cc1)C(=O)O; Bip = N[C@@H](Cc1ccc(-c2ccccc2)cc1)C(=O)O; Phe(3-Me) = Cc1cccc(C[C@H](N)C(=O)O)c1; γGlu = O=C(O)[C@H](CCC(=O)[*:2])N[*:1]; NH(CH2)12COOH = O=C(O)CCCCCCCCCCCCN*; Val(3-OH) = CC(C)(O)[C@H](N)C(=O)O; 4Pal = N[C@@H](Cc1ccncc1)C(=O)O; Cha = N[C@@H](CC1CCCCC1)C(=O)O; Cit = NC(=O)NCCC[C@H](N)C(=O)O; Ile(3ξ) = CCC(C)[C@H](N)C(=O)O; Thr(3ξ) = CC(O)[C@H](N)C(=O)O; X9 = NC(=O)CCCCCCCCCCCCCCN*; Carboxymethyl = O=C(O)C*; NMeA = CN[C@@H](C)C(=O)O; Orn = NCCC[C@H](N)C(=O)O; Aun = NCCCCCCCCCCC(=O)O; Dab = NCC[C@H](N)C(=O)O; Dap = NC[C@H](N)C(=O)O; AEEA = NCCOCCOCC(=O)O
# Target: T1, PD-1/PD-L1 interaction (PE-labeled human PD-L1-Ig binding to Jurkat cell line over-expressing human PD-1) (Homo sapiens, UniProt Q15116)
# T1 construct: expressed in transfected cells; host or cells: Jurkat
# Assay: Jurkat-PD-1 Cell Binding High-Content Screening Assay (CBA)
# Conditions: Jurkat-hPD-1 cells, PE-labeled PD-L1-Ig 20 nM final; read-out: Jurkat HPD1 PDL1 IC50
# Method in brief: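 High-content imaging read-out of PE-PD-L1-Ig binding (20 nM final, 1 h) to Jurkat-hPD-1 cells, after 2 h compound exposure at 37 °C in DMEM with 10% FCS. Nuclei counterstained with Hoechst 33342 after paraformaldehyde fixation.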
# T1 sequence (Q15116 25-288): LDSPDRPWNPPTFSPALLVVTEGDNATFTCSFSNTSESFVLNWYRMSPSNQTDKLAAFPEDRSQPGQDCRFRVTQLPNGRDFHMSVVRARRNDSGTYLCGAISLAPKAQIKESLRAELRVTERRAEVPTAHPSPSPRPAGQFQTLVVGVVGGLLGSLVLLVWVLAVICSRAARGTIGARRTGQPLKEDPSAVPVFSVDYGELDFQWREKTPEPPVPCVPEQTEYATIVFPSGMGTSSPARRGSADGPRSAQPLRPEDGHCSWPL
row,IC50,Compound
1,17.4 nM,CCC(C)[C@@H]1NC(=O)[C@H](Cc2ccc(-c3ccccc3)cc2)NC(=O)[C@H](CC(C)C)NC(=O)[C@H](Cc2cccc(C)c2)NC(=O)[C@H](CC(=O)O)NC(=O)[C@H](Cc2ccc(OCC(=O)O)cc2)NC(=O)[C@H](Cc2ccc(OCC(=O)O)cc2)NC(=O)CSC[C@@H](C(=O)NCCOCCOCC(=O)N[C@@H](CCC(=O)NCCCCCCCCCCC(=O)O)C(=O)O)NC(=O)[C@H](CO)NC(=O)[C@H](C(C)C)NC(=O)[C@H](CC(C)C)NC(=O)[C@H](CCN)NC(=O)[C@@H](CC(C)C)NC(=O)[C@H](C)N(C)C1=O (stereo partly drawn) [Example 2043] ({CH2CO}-Y(Carboxymethyl)Y(Carboxymethyl)D[Phe(3-Me)]L[Bip][Ile(3ξ)][NMeA][dL][Dab]LVSC[AEEA][γGlu][Aun]-OH; thioether N-14)
2,33.1 nM,CC(C)C[C@H]1NC(=O)[C@H](C)N(C)C(=O)[C@H](Cc2ccc(OCC(=O)O)cc2)NC(=O)[C@H](Cc2ccc(-c3ccccc3)cc2)NC(=O)[C@H](Cc2ccc(OCC(=O)O)cc2)NC(=O)[C@H](Cc2c[nH]c3ccccc23)NC(=O)[C@H](CC(=O)O)NC(=O)[C@H](Cc2ccc(OCC(=O)O)cc2)NC(=O)[C@H]([C@@H](C)O)NC(=O)CSC[C@@H](C(=O)N[C@@H](CCN)C(=O)NCCOCCOCC(=O)NCCCCCCCCCCC(=O)O)NC(=O)[C@H](CC(N)=O)NC(=O)[C@H](C(C)C)NC(=O)[C@H](CC2CCCCC2)NC(=O)[C@H](CCN)NC1=O [Example 1393] ({CH2CO}-TY(Carboxymethyl)DWY(Carboxymethyl)[Bip]Y(Carboxymethyl)[NMeA][dL][Dab][Cha]VNC[Dab][AEEA][Aun]-OH; thioether N-14)
3,106 nM,Cc1cccc(C[C@@H]2NC(=O)[C@H](CC(=O)O)NC(=O)[C@H](Cc3ccc(OCC(=O)O)cc3)NC(=O)[C@H](CN)NC(=O)CSC[C@@H](C(=O)N[C@@H](CC(=O)O)C(=O)NCCCCCCCCCCC(=O)O)NC(=O)[C@H](CO)NC(=O)[C@H](C(C)C)NC(=O)[C@H](CC(C)C)NC(=O)[C@H](CC(N)=O)NC(=O)[C@@H](CC(C)C)NC(=O)[C@H](C)N(C)C(=O)[C@H](C(C)C)NC(=O)[C@H](Cc3ccc(-c4ccccc4)cc3)NC(=O)[C@H](CC(C)C)NC2=O)c1 [Example 1067] ({CH2CO}-[Dap]Y(Carboxymethyl)D[Phe(3-Me)]L[Bip]V[NMeA][dL]NLVSCD[Aun]-OH; thioether N-14)
4,39.2 nM,CC(C)C[C@@H]1NC(=O)[C@H](Cc2c[nH]c3ccccc23)NC(=O)[C@H](CC(=O)O)NC(=O)[C@H](Cc2ccncc2)NC(=O)[C@H](Cc2ccc(OCC(=O)O)nc2)NC(=O)CSC[C@@H](C(=O)N[C@@H](CCN)C(=O)NCCCCCCCCCCC(=O)O)NC(=O)[C@H](CCC(N)=O)NC(=O)[C@H](C(C)C)NC(=O)[C@H](CC2CCCCC2)NC(=O)[C@H](CCN)NC(=O)[C@@H](CC(C)C)NC(=O)[C@H](C)N(C)C(=O)[C@H](C(C)C)NC(=O)[C@H](Cc2ccc(-c3ccccc3)cc2)NC1=O [Example 1343] ({CH2CO}-[X8][4Pal]DWL[Bip]V[NMeA][dL][Dab][Cha]VQC[Dab][Aun]-OH; thioether N-14)
5,160 nM,Cc1cccc(C[C@@H]2NC(=O)[C@H](CC(=O)O)NC(=O)[C@H](Cc3ccc(C(=O)O)cc3)NC(=O)[C@H](Cc3ccc(OCC(=O)O)cc3)NC(=O)CSC[C@@H](C(=O)NCCCCCCCCCCC(=O)O)NC(=O)[C@H](C(C)O)NC(=O)[C@H](C(C)C)NC(=O)[C@H](CC3CCCCC3)NC(=O)[C@H](CCN)NC(=O)[C@@H](CC(C)C)NC(=O)[C@H](C)N(C)C(=O)[C@H](Cc3ccc(O)cc3)NC(=O)[C@H](Cc3ccc(-c4ccccc4)cc3)NC(=O)[C@H](Cc3ccc(O)cc3)NC2=O)c1 (stereo partly drawn) [Example 2331] ({CH2CO}-Y(Carboxymethyl)[Phe(4-COOH)]D[Phe(3-Me)]Y[Bip]Y[NMeA][dL][Dab][Cha]V[Thr(3ξ)]C[Aun]-OH; thioether N-14)
6,11.8 nM,CC(C)C[C@H]1NC(=O)[C@H](C)N(C)C(=O)[C@H](CCC(N)=O)NC(=O)[C@H](Cc2ccc(-c3ccccc3)cc2)NC(=O)[C@H](Cc2ccc(C(=O)O)cc2)NC(=O)[C@H](Cc2cccc(C(F)(F)F)c2)NC(=O)[C@H](CC(=O)O)NC(=O)[C@H](Cc2ccc(OCC(=O)O)cc2)NC(=O)[C@H](CN2CCOCC2)NC(=O)CSC[C@@H](C(=O)N[C@@H](CCN)C(=O)NCCCCCCCCCCCCC(=O)O)NC(=O)[C@H](CO)NC(=O)[C@H](C(C)(C)O)NC(=O)[C@H](CC2CCCCC2)NC(=O)[C@H](CCN)NC1=O [Example 1152] ({CH2CO}-[Ala(morpholin-4-yl)]Y(Carboxymethyl)D[Phe(3-CF3)][Phe(4-COOH)][Bip]Q[NMeA][dL][Dab][Cha][Val(3-OH)]SC[Dab]-{NH(CH2)12COOH}; thioether N-14)
7,7.8 nM,Cc1cccc(C[C@@H]2NC(=O)[C@H](CC(=O)O)NC(=O)[C@H](Cc3ccc(OCC(=O)O)cc3)NC(=O)[C@H](CCCNC(=N)N)NC(=O)CSC[C@@H](C(=O)NCCOCCOCC(=O)NCCCCCCCCCCC(=O)O)NC(=O)[C@H](C(C)O)NC(=O)[C@H](C(C)C)NC(=O)[C@H](CC3CCCCC3)NC(=O)[C@H](CCN)NC(=O)[C@@H](CC(C)C)NC(=O)[C@H](C)N(C)C(=O)[C@H](CCCNC(N)=O)NC(=O)[C@H](Cc3ccc(-c4ccccc4)cc3)NC(=O)[C@H](C(C)C)NC2=O)c1 (stereo partly drawn) [Example 2318] ({CH2CO}-RY(Carboxymethyl)D[Phe(3-Me)]V[Bip][Cit][NMeA][dL][Dab][Cha]V[Thr(3ξ)]C[AEEA][Aun]-OH; thioether N-14)
8,28.9 nM,Cc1cccc(C[C@@H]2NC(=O)[C@H](CC(=O)O)NC(=O)[C@H](Cc3ccc(C(=O)O)cc3)NC(=O)[C@H](Cc3ccc(OCC(=O)O)cc3)NC(=O)CSC[C@@H](C(=O)N[C@@H](CCCN)C(=O)NCCCCCCCCCCC(=O)O)NC(=O)[C@H](CO)NC(=O)[C@H](C(C)C)NC(=O)[C@H](CC3CCCCC3)NC(=O)[C@H](CN)NC(=O)[C@@H](CC(C)C)NC(=O)[C@H](C)N(C)C(=O)[C@H](C(C)C)NC(=O)[C@H](Cc3ccc(-c4ccccc4)cc3)NC(=O)[C@H](CC(C)C)NC2=O)c1 [Example 2189] ({CH2CO}-Y(Carboxymethyl)[Phe(4-COOH)]D[Phe(3-Me)]L[Bip]V[NMeA][dL][Dap][Cha]VSC[Orn][Aun]-OH; thioether N-14)

# Same assay, conditions: PE-labeled PD-L1-Ig 20 nM final, Jurkat-hPD-1 cells; read-out: Jurkat HPD1 PDL1 IC50
row,IC50,Compound
1,37.9 nM,CC(C)C[C@@H]1NC(=O)[C@H](Cc2c[nH]c3ccccc23)NC(=O)[C@H](CC(=O)O)NC(=O)[C@H](Cc2ccc(OCC(=O)O)cc2)NC(=O)[C@H](Cc2ccc(OCC(=O)O)cc2)NC(=O)CSC[C@@H](C(=O)NCCOCCOCC(=O)NCCCCCCCCCCC(=O)O)NC(=O)[C@H](Cc2c[nH]cn2)NC(=O)[C@H](C(C)C)NC(=O)[C@H](CC2CCCCC2)NC(=O)[C@H](CCN)NC(=O)[C@@H](CC(C)C)NC(=O)[C@H](C)N(C)C(=O)[C@H](C(C)C)NC(=O)[C@H](Cc2ccc(-c3ccccc3)cc2)NC1=O [Example 2442] ({CH2CO}-Y(Carboxymethyl)Y(Carboxymethyl)DWL[Bip]V[NMeA][dL][Dab][Cha]VHC[AEEA][Aun]-OH; thioether N-14)
2,70.2 nM,Cc1cccc(C[C@@H]2NC(=O)[C@H](CC(=O)O)NC(=O)[C@H](Cc3ccc(OCC(=O)O)cc3)NC(=O)[C@H](CCN)NC(=O)CSC[C@@H](C(=O)N[C@@H](CCN)C(=O)NCCCCCCCCCCC(=O)O)NC(=O)[C@H](CO)NC(=O)[C@H](C(C)(C)O)NC(=O)[C@H](CC3CCCCC3)NC(=O)[C@H](Cc3c[nH]cn3)NC(=O)[C@@H](CC(C)C)NC(=O)[C@H](C)N(C)C(=O)[C@H](Cc3ccc(OCC(=O)O)cc3)NC(=O)[C@H](Cc3ccc(-c4ccccc4)cc3)NC(=O)[C@H](Cc3ccc(OCC(=O)O)cc3)NC2=O)c1 [Example 2465] ({CH2CO}-[Dab]Y(Carboxymethyl)D[Phe(3-Me)]Y(Carboxymethyl)[Bip]Y(Carboxymethyl)[NMeA][dL]H[Cha][Val(3-OH)]SC[Dab][Aun]-OH; thioether N-14)
3,148 nM,CCC(C)[C@@H]1NC(=O)[C@H](Cc2ccc(-c3ccccc3)cc2)NC(=O)[C@H](CC(C)C)NC(=O)[C@H](Cc2c[nH]c3ccccc23)NC(=O)[C@H](CC(=O)O)NC(=O)[C@H](Cc2ccc(OCC(=O)O)cc2)NC(=O)[C@H](Cc2ccncc2)NC(=O)CSC[C@@H](C(=O)N[C@@H](CCN)C(=O)NCCOCCOCC(=O)NCCCCCCCCCCC(=O)O)NC(=O)[C@H](CO)NC(=O)[C@H](C(C)(C)O)NC(=O)[C@H](CC2CCCCC2)NC(=O)[C@H](CCN)NC(=O)[C@@H](CC(C)C)NC(=O)[C@H](C)N(C)C1=O (stereo partly drawn) [Example 2502] ({CH2CO}-[4Pal]Y(Carboxymethyl)DWL[Bip][Ile(3ξ)][NMeA][dL][Dab][Cha][Val(3-OH)]SC[Dab][AEEA][Aun]-OH; thioether N-14)
4,24.2 nM,CC(=O)NCCCC[C@@H]1NC(=O)[C@H](C(C)(C)O)NC(=O)[C@H](CC2CCCCC2)NC(=O)[C@H](CCN)NC(=O)[C@@H](CC(C)C)NC(=O)[C@H](C)N(C)C(=O)[C@H](CCC(N)=O)NC(=O)[C@H](Cc2ccc(-c3ccccc3)cc2)NC(=O)[C@H](Cc2ccc(C(=O)O)cc2)NC(=O)[C@H](Cc2cccc(C(F)(F)F)c2)NC(=O)[C@H](CC(=O)O)NC(=O)[C@H](Cc2ccc(OCC(=O)O)cc2)NC(=O)[C@H](Cc2ccc(OCC(=O)O)cc2)CC(=O)CSC[C@@H](C(=O)N[C@@H](CCN)C(=O)NCCOCCOCC(=O)N[C@@H](CC(=O)NCCCCCCCCCCCCCCC(N)=O)C(=O)O)NC1=O [Example 2637] (Y(Carboxymethyl)D[Phe(3-CF3)][Phe(4-COOH)][Bip]Q[NMeA][dL][Dab][Cha][Val(3-OH)]K(Ac)C[Dab][AEEA]D(X9)-OH; linker N-13 via X10)
